Reference: US7045495B2 (Sloan-Kettering Institute for Cancer Research, priority 1996, dated 2006)
pIC50: −log10 of the molar value.

Legend:
[1] = intravenous safingol in emulsion; cited from earlier work
MDA-MB-468 cells = test: cell proliferation studies; type: cell-based, human
[2] = phase I trial safingol with doxorubicin: plasma pharmacokinetics; type: in vivo, patients; settings: human, intravenous
Description: (iii) Safingol pharmacokinetics appear linear with increasing dose: The pharmacokinetics of patients treated with safingol and DOX at 45 mg/m^2 is shown below: […]

creatinine phosphokinase = settings: read-out: concentration for 50% inhibition of creatinine phosphokinase; safingol; cited from earlier work
case in kinase = settings: read-out: concentration for 50% inhibition of case in kinase; safingol; cited from earlier work
[3] = preclinical pharmacology of safingol; settings: mouse, in vivo, mice
Description: Based on the mice studies applicants have predicted that in order to achieve meaningful chemopotentiation with either DOX or cisplatin applicants need to deliver the equivalent mouse dose of 5 mg/kg to 20 mg/kg safingol. […] From the pharmacology data obtained thus far from the patients treated with escalating doses of safingol and 45 mg/m^2 of DOX, it appears that applicants are approaching these target levels.

[4] = rat, in vivo; cited from earlier work
16C mammary carcinoma = settings: safingol 5 to 20 mg/kg; cited from earlier work
MKN-74 [5] = test: cytotoxicity, Alamar Blue Assay; type: cell-based, human; settings: 24 hours; RO 32-2241 10^-6 M, Mitomycin-C 5 μg/ml
Source text: It has been shown that PKC activity can act as an antagonist to apoptosis, whereas PKC inhibition can promote apoptosis. These observations imply that one function of PKC stimulated processes is to inhibit the induction of programmed cell death. Thus, anti-tumor effects of chemotherapeutic agents may be potentiated by PKC inhibitors that contribute to the induction of apoptosis after drug-induced damage. In order to test this hypothesis we have used the human gastric cancer cell MKN-74 to determine whether RO 32-2241 would enhance the cytotoxic effect of the chemotherapeutic agent Mitomycin-C (MMC). Cytotoxicity was measured and quantified using the Alamar Blue Assay. Cells were treated according to one of four conditions: (i) no drug (control) for 24 hours, (ii) RO 32-2241 alone at 10–6 M, (iii) Mitomycin-C alone at 5 μg/ml for 24 hours, (iv) the combination of RO 32-2241 (10^-6 M) and Mitomycin-C (5 μg/ml) for 24 hours. The results are summarized below for percent survival: […]

SK-GT-2 cells = test: apoptosis by QFM, Hoechst-33258 staining; type: cell-based, human; settings: 24 hours
Description: (i) Safingol enhances MMC-induced apoptosis: SK-GT-5 cells, which have a mutated p53 gene (9), were treated with safingol in the presence or absence of MMC for 24 hours. For determination of apoptosis SK-GT-5 cells were treated according to one of several conditions: (i) no drug (control) for 24 hours, (ii) Safingol alone (50 μM) for 24 hours. (This concentration represents the highest non-toxic dose of safingol for the SK-GT-5 cells, as determined by cell proliferation studies, and slightly exceeds the safingol concentration (30 μM) which inhibits PKC enzyme activity by 50% in vitro.), (iii) Mitomycin-C alone (2.5 μg/ml) for 24 hours, (iv) Mitomycin-C alone (5 μg/ml) for 24 hours, (v) the combination of safingol (50 μM) and Mitomycin-C (2.5 μg/ml) for 24 hours, (vi) the combination of safingol (50 μM) and Mitomycin-C (5 μg/ml) for 24 hours. Apoptosis was measured by quantitative fluorescent microscopy (QFM) of nuclear changes induced by apoptosis, as determined by bisbenzimide trihydrochloride (Hoescht-33258) staining of condensed nuclear chromatin (3,5). For the QFM duplicate samples of 500 cells each were counted and scored for the incidence of apoptotic chromatin condensation using an Olympus BH-2 fluorescence microscope.
(ii) UCN-01 enhances MMC-induced apoptosis: SK-GT-2 cells, which have a mutation in p53, were treated with increasing concentrations of UCN-01 in the presence or absence of a fixed dose of MMC for 24 hours.
Both UCN-01 and Flavo inhibit PKC. These drugs are cytotoxic to tumor cells and have been reported to induce apoptosis. […] In order to test this hypothesis we elected to treat gastric cancer cells, MKN-74 and SK-GT-2, as well as breast cancer cells, MDA-MB-468, with UCN-01 (7.5 to 10 μM) or Flavo (300 nM) in the presence or absence of MMC (5 μg/ml) or Taxol (50 μM) for 24 hours. Induction of apoptosis was estimated by counting the frequency of condensed nuclear chromatin with Hoechst-33258 stain in duplicate samples of 400 cells.

SK-GT-5 = test: clonogenic assay, resistance relative to MKN-74; type: cell-based, human; settings: 10 μg/ml CDDP, 5 μg/ml MMC, 50 FM 5-FU
Source text: (§1) The basis of drug resistance in these disease has not been well defined. […] For gastric cancer applicants have been successful in establishing five long-term cell lines, SK-GT-1, SK-GT-2, SK-GT-4, SK-GT-5, and SK-GT-6 for Sloan Kettering Gastric Tumor (12,13) none of which express P-glycoprotein (14). Yet, all these tumors are resistant to chemotherapy and to the induction of apoptosis. Applicants have reported that the relative sensitivity of these gastric cancer cells to chemotherapy is influenced by their p53 status (14).

NU-GC-4 = test: clonogenic assay, resistance relative to MKN-74; type: cell-based, human; settings: 10 μg/ml CDDP, 5 μg/ml MMC
Source text: as §1

MKN-74 [6] = test: clonogenic assay, resistance relative to MKN-74; type: cell-based, human; settings: MKN-74 (reference); 10 μg/ml CDDP, 5 μg/ml MMC, 50 FM 5-FU
Source text: as §1

SK-GT-2 = test: clonogenic assay, resistance relative to MKN-74; type: cell-based, human; settings: 10 μg/ml CDDP, 5 μg/ml MMC, 50 FM 5-FU
Source text: as §1

SK-GT-1 = test: clonogenic assay, resistance relative to MKN-74; type: cell-based, human; settings: clonogenic survival ratio, 10 μg/ml CDDP, 5 μg/ml MMC, 50 FM 5-FU
Source text: as §1

Q: With `CCCCCCCCCCCCCCC[C@H](O)[C@@H](N)CO` [safingol, L-threo-dihydrosphingosine] as the compound, how does the “clinical pathology and histopathology findings” value [1] read?
A: Its value is “venous irritation and transient intravascular hemolysis”.

Q: What about the “highest non-toxic dose (cell proliferation studies)” value (MDA-MB-468 cells) of the same compound?
A: Its value is 50 µM.

Q: And the Cmax ([2]; 15 mg/m2, dose level 15 mg/m^2)?
A: The Cmax was 199 ng/mL.

Q: What about the AUC ([2]; 15 mg/m2, dose level 15 mg/m^2, read-out: AUC without DOX (first column)) of the same compound?
A: Its AUC is 168 ng·h/mL.

Q: And the AUC ([2]; 15 mg/m2, dose level 15 mg/m^2, read-out: AUC without DOX (second column))?
A: The AUC was 161 ng·h/mL.

Q: What about the Cmax ([2]; 30 mg/m2, dose level 30 mg/m^2) of the same compound?
A: The Cmax was 336 ng/mL.

Q: And the AUC ([2]; 30 mg/m2, dose level 30 mg/m^2, read-out: AUC without DOX (first column))?
A: Its AUC is 501 ng·h/mL.

Q: And the AUC ([2]; 30 mg/m2, dose level 30 mg/m^2, read-out: AUC without DOX (second column))?
A: Its AUC is 428 ng·h/mL.

Q: What about the Cmax ([2]; 60 mg/m2, dose level 60 mg/m^2) of the same compound?
A: Its Cmax is 422 ng/mL.

Q: And the AUC ([2]; 60 mg/m2, dose level 60 mg/m^2, read-out: AUC without DOX (first column))?
A: The AUC was 531 ng·h/mL.

Q: And the AUC ([2]; 60 mg/m2, dose level 60 mg/m^2, read-out: AUC without DOX (second column))?
A: The AUC was 501 ng·h/mL.

Q: And the Cmax ([2]; 120 mg/m2, dose level 120 mg/m^2)?
A: The Cmax was 988 ng/mL.

Q: What about the AUC ([2]; 120 mg/m2, dose level 120 mg/m^2, read-out: AUC without DOX (first column)) of the same compound?
A: Its AUC is 1230 ng·h/mL.

Q: And the AUC ([2]; 120 mg/m2, dose level 120 mg/m^2, read-out: AUC without DOX (second column))?
A: The AUC was 1230 ng·h/mL.

Q: What about the pIC50 (creatinine phosphokinase) of the same compound?
A: The pIC50 was less than 3.66.

Q: What about the pIC50 (case in kinase) of the same compound?
A: Its pIC50 is less than 3.66.

Q: What about the AUC ([3]; 5 mg/kg safingol) of the same compound?
A: Its AUC is 668 ng·h/mL.

Q: And the Cmax ([3]; 5 mg/kg safingol)?
A: Its Cmax is 1800 ng/mL.

Q: And the AUC ([3]; 20 mg/kg safingol)?
A: The AUC was 2700 ng·h/mL.

Q: What about the Cmax ([3]; 20 mg/kg safingol) of the same compound?
A: Its Cmax is 7020 ng/mL.

Q: What about the “potentiation of toxicity of chemotherapeutic agents” value [4] of the same compound?
A: Its value is “did not potentiate the myelotoxicity of these agents”.

Q: What about the “effect on tumor cell growth, single agent” value (16C mammary carcinoma) of the same compound?
A: Its value is “no effect on inhibiting tumor cell growth”.

Q: For `CO[C@@]12[C@H](COC(N)=O)C3=C(C(=O)C(C)=C(N)C3=O)N1C[C@@H]1N[C@@H]12` [MMC, Mitomycin-C], which Percent survival (MKN-74 [5]) is on record?
A: The Percent survival was 87%.

Q: And the “percentage of cells undergoing apoptosis (QFM)” value (SK-GT-2 cells; MMC alone 5.0 μg/ml)?
A: The value was 7%±3%.

Q: And the “induction of apoptosis (condensed chromatin, 400 cells)” value (SK-GT-2 cells; UCN-01 7.5 to 10 μM, MMC 5 μg/ml)?
A: Its value is 11% ± 2.

Q: What about the “Fold-Increase in Resistance Relative to MKN-74 (p53wt)” value (SK-GT-5) of the same compound?
A: The value was 55X.

Q: What about the “Fold-Increase in Resistance Relative to MKN-74 (p53wt)” value (NU-GC-4) of the same compound?
A: The value was 10X.

Q: And the “Fold-Increase in Resistance Relative to MKN-74 (p53wt)” value (MKN-74 [6])?
A: The value was 1X.

Q: What about the “Fold-Increase in Resistance Relative to MKN-74 (p53wt)” value (SK-GT-2) of the same compound?
A: The value was 106X.

Q: And the “Fold-Increase in Resistance Relative to MKN-74 (p53wt)” value (SK-GT-1)?
A: The value was 166X.
